Assay results published in patent US8367710B2, “Bicyclo-substituted pyrazolon azo derivatives, preparation process and pharmaceutical use thereof” (Jiangsu Hengrui Medicine Co. Ltd., priority 2008, dated 2013).

Key:
[1] = Pharmacokinetics assay in rats after intragastric administration; type: in vivo; settings: both sexes, Sprague-Dawley, rat, plasma, po, SD rats, 5 mg/Kg; for Vd/F: read-out: Apparent Distribution Volume Vz/F; for CL/F: read-out: Clearance CL/F (converted); for AUC: read-out: Curve Area AUC; for half-life: read-out: Half-Life t½ (converted); for MRT: read-out: Mean Residence Time MRT; for Cmax: read-out: Plasma Conc. Cmax
Description: Test Example 1: Pharmacokinetics assay of the compounds of the present disclosure
The pharmacokinetics of the compounds of the present disclosure was studied and evaluated in rats.
The test compound was diluted with 1% sodium carboxymethyl cellulose to 0.5 mg/mL (calculated as the free acid form) of suspension before use.
24 healthy adult SD rats, male and female in half, were divided into […]. After an overnight fast, the rats were administered intragastrically at a dose of 5.0 mg/kg (calculated as the free acid form), at a volume of 10 mL/kg.
24 healthy adult SD rats, male and female in half, were administered intragastrically at a dose of 5.0 mg/kg after an overnight fast. Blood samples (0.2 mL) were taken from eye socket at pre administration and at 0.5, 1.0, 2.0, 3.0, 4.0, 5.0, 6.0, 8.0, 11.0, 14.0, 24.0, 36.0 and 48.0 hours post administration, which were stored in heparinized tubes and centrifuged for 10 minutes at 3,500 rpm. The plasma samples were stored at −20° C. until analysis.
50 μL of rat plasma, obtained at various time points after administration, 20 μL of internal standard solution and 20 μL of a solvent mixture of methanol and water (80:20, v/v) were mixed well, and then 150 μL of methanol was added to result in protein precipitation. Then the mixture was mixed for 1 minute using a vortexer and centrifuged for 10 minutes at 13,000 rpm. 20 μL of the supernatant was analyzed by LC/MS/MS.
50 μL of blank plasma was spiked with a series of standard solutions to produce final concentrations of 1.0, 5.0, 25.0, 50.0, 100.0, 250.0, 500.0 ng/mL, followed by addition of 20 μL of internal standard solution, which was treated according to plasma sample pretreatment protocol. A typical calibration curve equation was obtained with plasma concentration as the abscissa and the chromatographic peak area ratio of sample to internal standard as the ordinate, using weighted least squares method (w=1/x^2) for linear regression.
The compartmental model of pharmacokinetics was fitted for the test compounds and the major pharmacokinetic parameters were calculated in which Cmax and tmax were the actually measured values.

human TPO receptor = molecular target: T1, human TPO receptor (Homo sapiens, UniProt P40238); test: pro-proliferation effect on BAF3-TPOR cell (CCK-8); type: cell-based, mouse; settings: BAF3-TPOR cells, proliferation relative to rhTPO positive control
T1 sequence (P40238 26-635): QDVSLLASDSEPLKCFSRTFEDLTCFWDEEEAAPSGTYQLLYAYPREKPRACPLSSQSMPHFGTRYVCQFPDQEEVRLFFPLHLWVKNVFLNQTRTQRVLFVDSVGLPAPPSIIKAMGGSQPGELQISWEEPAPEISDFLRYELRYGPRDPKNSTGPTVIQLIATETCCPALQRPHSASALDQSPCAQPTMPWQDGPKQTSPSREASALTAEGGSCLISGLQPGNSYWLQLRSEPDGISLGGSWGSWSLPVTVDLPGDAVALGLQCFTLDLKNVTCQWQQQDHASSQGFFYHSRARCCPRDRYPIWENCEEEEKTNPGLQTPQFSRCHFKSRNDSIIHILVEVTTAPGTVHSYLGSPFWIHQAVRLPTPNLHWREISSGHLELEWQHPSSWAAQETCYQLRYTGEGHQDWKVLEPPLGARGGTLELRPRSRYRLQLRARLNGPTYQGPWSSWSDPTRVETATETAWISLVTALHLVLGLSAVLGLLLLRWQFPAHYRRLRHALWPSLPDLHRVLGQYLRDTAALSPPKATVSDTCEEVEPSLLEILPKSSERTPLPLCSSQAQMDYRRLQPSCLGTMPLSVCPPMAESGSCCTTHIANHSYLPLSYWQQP
Description: The sequence of primers which contains multi-sites mutation was designed as follows: […]
The E. coli DH5α competent cell was transformed with mutated plasmid, and positive colonies were picked up through ampicillin selection.
(2) BAF3-TPOR stable transfected cell line: the following method was used to construct the BaF3 cell which stably over-expressed functional human TPO receptor. […] The stable transfected cells BAF3-TPOR were selected with G418 (Gibco, US), then incubated with RPMI1640 medium plus 10% FBS (Gibco, US), […] G418, 5 ng/mL, rmIL-3 (Chemicon, US).
(1) Washing cells by centrifugation: a suitable amount of cell suspension was centrifuged at 1000 rpm for 5 minutes, and the supernatant was discarded. 10 mL of cell culture media without containing IL-3 was added. Then the resulting cell suspension was centrifuged at 1000 rpm for 5 minutes, and the supernatant was discarded.
(2) 1 mL of cell culture media without containing IL-3 was added to beat upon them to equality, and the number of a suitable amount of cell suspension was counted after dilution.
(3) According to the result of the cell counting, a cell suspension in a concentration of 100,000 cell/mL was prepared.
(4) 100 μL of cell suspension was transferred to each well of 96-well culture plate, and there were 3 parallel wells, that is, there were a blank control group (B), a negative control group (N), a positive control group of TPO (P) and a test compound group (S).
(5) The test compound was dissolved in DMSO to prepare a 10 mM stock solution, and then the solution was diluted with RPMI 1640 medium into a series of test samples at different concentration: 30 μM, 10 μM, 3 μM, 1 μM, 0.3 μM, 0.1 μM, 0.03 μM, 0.01 μM, 0.003 μM, 0.001 μM.
(6) 10 μL of test compound solution was transferred to each well respectively; 1 μL of rhTPO (10 μg/mL) was added to positive control well.
(7) The plates were incubated in an incubator at 5% CO2 and 37° C. for 24 hours.
(9) OD value was detected at 450 nm by VICTOR3 (Perkin Elmer 1420-120) plate reader.
(1) The proliferation rate was calculated as follows: Rate=[(S−B)/(P−B)]*100%
S: OD value of wells which contains test compound.
B: OD value of blank control wells
P: OD value of positive control wells
(2) The EC50 value was calculated by Origin 7.0 software.

Row | Structure (SMILES) | EC50 (human TPO receptor) | further results
1 | CC1=NN(c2ccc3c(c2)CCC3)C(=O)/C1=N\Nc1cccc(-c2cccc(C(=O)O)c2)c1O [Example 1, 2′-Hydroxy-3′-[N′-(1-indan-5-yl-3-methyl-5-oxo-1,5-dihydro-pyrazol-4-ylidene)-hydrazino]-biphenyl-3-carboxylic acid] |  | Vd/F [1]: 0.35 ± 0.18 L/kg; CL/F [1]: 0.817 mL/min/kg; AUC [1]: 132000 ± 47000 ng·h/mL; half-life [1]: 5.39 ± 0.94 h; MRT [1]: 4.96 ± 1.16 h; Cmax [1]: 29000 ± 11400 ng/mL
2 | CC1=NN(c2ccc3c(c2)CCCC3)C(=O)/C1=N\Nc1cccc(-c2cccc(C(=O)O)c2)c1O [Example 3, 2′-Hydroxy-3′-{N′-[3-methyl-5-oxo-1-(5,6,7,8-tetrahydro-naphthalen-2-yl)-1,5-dihydro-pyrazol-4-ylidene]-hydrazino}-biphenyl-3-carboxylic acid] | 310 nM | 
3 | CC1=NN(c2ccc3c(c2)CCCC3)C(=O)/C1=N\Nc1cc(F)cc(-c2cccc(C(=O)O)c2)c1O [Example 4, 5′-Fluoro-2′-hydroxy-3′-{N′-[3-methyl-5-oxo-1-(5,6,7,8-tetrahydro-naphthalen-2-yl)-1,5-dihydro-pyrazol-4-ylidene]-hydrazino}-biphenyl-3-carboxylic acid] | 283 nM | 
4 | CC1=NN(c2ccc3c(c2)CCCC3)C(=O)/C1=N\Nc1cc(C)cc(-c2cccc(C(=O)O)c2)c1O [Example 11, 2′-Hydroxy-5′-methyl-3′-{N′-[3-methyl-5-oxo-1-(5,6,7,8-tetrahydro-naphthalen-2-yl)-1,5-dihydro-pyrazol-4-ylidene]-hydrazino}-biphenyl-3-carboxylic acid] | 257 nM | 
5 | CC1=NN(c2ccc3c(c2)CCCC3)C(=O)/C1=N\Nc1cccc(-c2ccc(C(=O)O)o2)c1O [Example 15, 5-(2-Hydroxy-3-{N′-[3-methyl-5-oxo-1-(5,6,7,8-tetrahydro-naphthalen-2-yl)-1,5-dihydro-pyrazol-4-ylidene]-hydrazino}-phenyl)-furan-2-carboxylic acid] |  | Vd/F [1]: 1.36 ± 0.7 L/kg; CL/F [1]: 4.67 mL/min/kg; AUC [1]: 23800 ± 17300 ng·h/mL; half-life [1]: 3.47 ± 0.79 h; MRT [1]: 4.09 ± 0.99 h; Cmax [1]: 6630 ± 3780 ng/mL
6 | CC1=NN(c2ccc3c(c2)C(C)(C)CC3(C)C)C(=O)/C1=N\Nc1cccc(-c2ccc(C(=O)O)o2)c1O [Example 25, 5-(2-Hydroxy-3-{N′-[3-methyl-5-oxo-1-(1,1,3,3-tetramethyl-indan-5-yl)-1,5-dihydro-pyrazol-4-ylidene]-hydrazino}-phenyl)-furan-2-carboxylic acid] | 60 nM | 
7 | CC1=NN(c2ccc3c(c2)CC3)C(=O)/C1=N\Nc1cccc(-c2ccc(C(=O)O)s2)c1O [Example 37, 5-{3-[N′-(1-Bicyclo[4.2.0]octa-1(6),2,4-trien-3-yl-3-methyl-5-oxo-1,5-dihydro-pyrazol-4-ylidene)-hydrazino]-2-hydroxy-phenyl}-thiophene-2-carboxylic acid] | 90 nM | 
8 | CC1=NN(c2ccc3c(c2)C(C)CC3)C(=O)/C1=N\Nc1cccc(-c2ccc(C(=O)O)o2)c1O (stereo not shown) [Example 44, 5-(2-Hydroxy-3-{N′-[3-methyl-1-(3-methyl-indan-5-yl)-5-oxo-1,5-dihydro-pyrazol-4-ylidene]-hydrazino}-phenyl)-furan-2-carboxylic acid] | 50 nM | 

The next lines start with results.

Row | EC50 (human TPO receptor) | Structure (SMILES) | further results
9 | 354 nM | CC1=NN(c2ccc3c(c2)CC3)C(=O)/C1=N\Nc1cccc(-c2cccc(C(=O)O)c2)c1O [Example 5, 3′-[N′-(1-Bicyclo[4.2.0]octa-1(6),2,4-trien-3-yl-3-methyl-5-oxo-1,5-dihydro-pyrazol-4-ylidene)-hydrazino]-2′-hydroxy-biphenyl-3-carboxylic acid] | 
10 | 265 nM | CC1=NN(c2ccc3c(c2)CCO3)C(=O)/C1=N\Nc1cccc(-c2cccc(C(=O)O)c2)c1O [Example 7, 3′-{N′-[1-(2,3-dihydro-benzofuran-5-yl)-3-methyl-5-oxo-1,5-dihydro-pyrazol-4-ylidene]-hydrazino}-2′-hydroxy-biphenyl-3-carboxylic acid] | 
11 | 141 nM | CC1=NN(c2ccc3c(c2)CCO3)C(=O)/C1=N\Nc1cc(C)cc(-c2cccc(C(=O)O)c2)c1O [Example 13, 3′-{N′-[1-(2,3-Dihydro-benzofuran-5-yl)-3-methyl-5-oxo-1,5-dihydro-pyrazol-4-ylidene]-hydrazino}-2′-hydroxy-5′-methyl-biphenyl-3-carboxylic acid] | 
12 | 160 nM | CC1=NN(c2ccc3c(c2)C(C)(C)CC3)C(=O)/C1=N\Nc1cc(C)cc(-c2cccc(C(=O)O)c2)c1O [Example 16, 3′-{N′-[1-(3,3-Dimethyl-indan-5-yl)-3-methyl-5-oxo-1,5-dihydro-pyrazol-4-ylidene]-hydrazino}-2′-hydroxy-5′-methyl-biphenyl-3-carboxylic acid] | 
13 | 89 nM | CC1=NN(c2ccc3c(c2)C(C)(C)CC3(C)C)C(=O)/C1=N\Nc1cc(C)cc(-c2cccc(C(=O)O)c2)c1O [Example 20, 2′-Hydroxy-5′-methyl-3′-{N′-[3-methyl-5-oxo-1-(1,1,3,3-tetramethyl-indan-5-yl)-1,5-dihydro-pyrazol-4-ylidene]-hydrazino}-biphenyl-3-carboxylic acid] | 
14 | 15 nM | CC1=NN(c2ccc3c(c2)CC3)C(=O)/C1=N\Nc1cccc(-c2ccc(C(=O)O)o2)c1O [Example 22, 5-{3-[N′-(1-Bicyclo[4.2.0]octa-1(6),2,4-trien-3-yl-3-methyl-5-oxo-1,5-dihydro-pyrazol-4-ylidene)-hydrazino]-2-hydroxy-phenyl}-furan-2-carboxylic acid] | 
15 | 27 nM | CC1=NN(c2ccc3c(c2)CCC3)C(=O)/C1=N\Nc1cccc(-c2coc(C(=O)O)c2)c1O [Example 31, 4-{2-Hydroxy-3-[N′-(1-indan-5-yl-3-methyl-5-oxo-1,5-dihydro-pyrazol-4-ylidene)-hydrazino]-phenyl}-furan-2-carboxylic acid] | 
